Non-standard residues stand in square brackets, D forms with d. Residues, ends and D or L forms follow the SMILES beside them. *: point of attachment. Nle = CCCC[C@H](N)C(=O)O; Cbz = O=C(OCc1ccccc1)*
How the values were obtained:
[1] = test system: nerve cells in the hippocampal CA1 region; experiment: Effect on ischemic disorder of the brain: bilateral common carotid artery occlusion, nerve cell counts in hippocampal CA1 region; format: in vivo; conditions: gerbil, 10 min ischemia, 100 mg/kg intraperitoneally 15 min before ischemia, immediately after reperfusion, then once daily, counted 5 days after reperfusion; for ischemia-induced decrease in the number of normal nerve cells in the hippocampal CA1 region: FIG. 1; for ischemia-induced increase in the number of apoptotic nerve cells in the hippocampal CA1 region: FIG. 2
Protocol: The bilateral common carotid arteries of gerbils (male, body weights 60-80 g) were exposed under ether anesthesia. Then, in a conscious state, the carotid arteries were occluded with aneurysm clips to arrest the blood flow for 10 minutes. Ischemia was confirmed by checking the arrest of retinal blood flow with a blood flow meter (Advance laser flow meter (ALF21N), Advance Co. Ltd.) and observation of ischemic symptoms such as seizure, circling, and ptosis. After removal of the clips, reperfusion was confirmed with the blood flow meter. Five days after reperfusion, the animal was anesthetized with ether and was perfused with saline through the left ventricle for removal of blood and further with 4% formaldehyde for fixation of the brain tissue. The tissue was embedded in paraffin and thin sections were prepared and stained with hematoxylin-eosin in the routine manner. The nerve cells in the hippocampal CA1 region were observed under a light microscope and the normal nerve cells remaining in a 1.0 mm span of the hippocampal CA1 region were counted. Separately, using Apoptosis in situ Detection Kit Wako (Wako Pure Chemical Ind., Ltd.), the apoptosis in the paraffin-embedded brain tissue specimen was detected and using the light microscope, the apoptotic nerve cells per 1.0 mm span of the hippocampal CA1 region were counted.
In the normal group, the common carotid arteries were exposed but no ischemia was introduced. As the test drug, a parenteral suspension prepared as in Example 3 was administered intraperitoneally in a dose of 100 mg Compound 1 per kg body weight 15 minutes before ischemia, immediately after reperfusion, and thereafter once daily (Compound 1 administration group). In the control group and normal group, the vehicle used in Example 3 was similarly administered. As a positive control, Cbz-Val-Phe-H [MDL; S. C. Hong et al., Stroke, 25 (3), 663-669 (1994)], 100 mg/kg body weight, was similarly administered (MDL administration group).

[2] = Toxicity study, single oral dose, 14-day observation; format: in vivo, Wister rats; conditions: rat, oral 1000 mg/kg
Protocol: Five-week-old Wister rats (male, body weights 80-105 g) were orally given a 3.3 w/v % suspension of Compound 1 in 0.5 w/v % carboxymethylcellulose in a dose of 1000 mg as Compound 1 per kg body weight. […] Body weights were recorded before dosing and once daily for 14 days after dosing. Autopsy was performed after sacrifice by exsanguination under ether anesthesia after 14 days and the organs were grossly examined. The control group received 0.5 w/v % carboxymethylcellulose.

[3] = test system: cytopathy due to cerebral ischemia; conditions: rats, administered intravenously; cited from earlier work
neurons [4] = conditions: administered intraperitoneally; cited from earlier work
neurons [5] = conditions: directly administered into the animal cerebral ventricle; cited from earlier work

In the case of `CC(C)C[C@@H](C=O)NC(=O)[C@@H](NS(=O)(=O)c1ccc(F)cc1)C(C)C` [Compound 1, N-(4-fluorophenylsulfonyl)-L-valyl-L-leucinal], the “ischemia-induced decrease in the number of normal nerve cells in the hippocampal CA1 region” value [1] is reported as “significantly inhibited”, the “ischemia-induced increase in the number of apoptotic nerve cells in the hippocampal CA1 region” value [1] is reported as “significantly inhibited” and the “body weight gain versus control group” value ([2]; 14 days) is reported as “no difference”. For the same compound, the “autopsy findings versus control group” value ([2]; autopsy after 14 days) was “no difference” and the “general condition and behavior” value ([2]; observed 14 days) was “no change”.

In the case of `CC(C)[C@H](NC(=O)OCc1ccccc1)C(=O)N[C@H](C=O)Cc1ccccc1` [MDL, Cbz-Val-Phe-H] (Cbz-Val-Phe-aldehyde), the “ischemia-induced decrease in the number of normal nerve cells in the hippocampal CA1 region” value [1] is listed as “little inhibitory effect”, the “ischemia-induced increase in the number of apoptotic nerve cells in the hippocampal CA1 region” value [1] is listed as “little inhibitory effect” and the “cytopathy due to cerebral ischemia” value [3] is listed as “inhibited cytopathy”.

For `CCCC[C@@H](C=O)NC(=O)[C@H](CC(C)C)NC(=O)[C@H](CC(C)C)NC(C)=O` [calpain inhibitor I] (Ac-Leu-Leu-[Nle]-aldehyde), the “protection of neurons from excitotoxic factors” value (neurons [4]) is listed as “protect neurons from excitotoxic factors”.

For `CC(=O)N[C@@H](CC(C)C)C(=O)N[C@@H](CC(C)C)C(=O)N[C@H](C=O)CCCNC(=N)N` [leupeptin], the “protection of neurons against damage by cerebral ischemia” value (neurons [5]) is given as “protects neurons against damage”.
